Test: Hygroscopicity by Dynamic Vapor Sorption (DVS), sorption/desorption profile
Assay type: physicochemical
Procedure: The preparation of lactose co-crystal and asparagine co-crystal were scaled up and repeated (about 400 mg of dapagliflozin free form was dissolved in 26 ml of IPA) and XRPD, PLM, TGA, DSC, NMR and DVS analyses were conducted for physicochemical properties evaluation. Before physicochemical properties evaluation, the solids precipitated out were isolated and dried off at 40° C. for 4 hours in vacuum drier. After hygroscopicity test, the sample was retested by XRPD to determine if any form transformation during the DVS test.
The sorption/desorption profiles of dapagliflozin Form I were tested at 25° C. under 0-95% relative humidity. […] This sample was tested by XRPD.

[1] = DVS 25° C., cycle 1, target 0.0 % P/Po
[2] = DVS 25° C., cycle 1, target 5.0 % P/Po
[3] = DVS 25° C., cycle 1, target 10.0 % P/Po
[4] = DVS 25° C., cycle 1, target 15.0 % P/Po
[5] = DVS 25° C., cycle 1, target 20.0 % P/Po
[6] = DVS 25° C., cycle 1, target 25.0 % P/Po
[7] = DVS 25° C., cycle 1, target 30.0 % P/Po
[8] = DVS 25° C., cycle 1, target 35.0 % P/Po
[9] = DVS 25° C., cycle 1, target 40.0 % P/Po
[10] = DVS 25° C., cycle 1, target 45.0 % P/Po
[11] = DVS 25° C., cycle 1, target 50.0 % P/Po
[12] = DVS 25° C., cycle 1, target 55.0 % P/Po
[13] = DVS 25° C., cycle 1, target 60.0 % P/Po
[14] = DVS 25° C., cycle 1, target 65.0 % P/Po
[15] = DVS 25° C., cycle 1, target 70.0 % P/Po
[16] = DVS 25° C., cycle 1, target 75.0 % P/Po
[17] = DVS 25° C., cycle 1, target 80.0 % P/Po
[18] = DVS 25° C., cycle 1, target 85.0 % P/Po
[19] = DVS 25° C., cycle 1, target 90.0 % P/Po
[20] = DVS 25° C., cycle 1, target 95.0 % P/Po

With `CCOc1ccc(Cc2cc(C3OC(CO)C(O)C(O)C3O)ccc2Cl)cc1.NC(=O)CC(N)C(=O)O` (stereo not drawn) [Asparagine co-crystal] the “weight gain from 0 to 95% RH” value (DVS 25° C., 0 to 95% RH) was 1.80%, the “Change In Mass (%) - ref, Desorption” value [1] was 0.159% and the “Change In Mass (%) - ref, Sorption” value [1] was 0.002%. For the same compound, the “Change In Mass (%) - ref, Desorption” value [2] was 0.302%, the “Change In Mass (%) - ref, Hysteresis” value [2] was 0.071% and the “Change In Mass (%) - ref, Sorption” value [2] was 0.231%. For the same compound, the “Change In Mass (%) - ref, Desorption” value [3] was 0.341%, the “Change In Mass (%) - ref, Hysteresis” value [3] was 0.071% and the “Change In Mass (%) - ref, Sorption” value [3] was 0.270%. The “Change In Mass (%) - ref, Desorption” value [4] was 0.364%, the “Change In Mass (%) - ref, Hysteresis” value [4] was 0.060% and the “Change In Mass (%) - ref, Sorption” value [4] was 0.304%. The “Change In Mass (%) - ref, Desorption” value [5] was 0.371%, the “Change In Mass (%) - ref, Hysteresis” value [5] was 0.035% and the “Change In Mass (%) - ref, Sorption” value [5] was 0.336%. For the same compound, the “Change In Mass (%) - ref, Desorption” value [6] was 0.392%, the “Change In Mass (%) - ref, Hysteresis” value [6] was 0.022% and the “Change In Mass (%) - ref, Sorption” value [6] was 0.370%. The “Change In Mass (%) - ref, Desorption” value [7] was 0.412%, the “Change In Mass (%) - ref, Hysteresis” value [7] was 0.009% and the “Change In Mass (%) - ref, Sorption” value [7] was 0.404%. The “Change In Mass (%) - ref, Desorption” value [8] was 0.440%, the “Change In Mass (%) - ref, Hysteresis” value [8] was −0.006% and the “Change In Mass (%) - ref, Sorption” value [8] was 0.446%. For the same compound, the “Change In Mass (%) - ref, Desorption” value [9] was 0.474%, the “Change In Mass (%) - ref, Hysteresis” value [9] was −0.020% and the “Change In Mass (%) - ref, Sorption” value [9] was 0.493%. For the same compound, the “Change In Mass (%) - ref, Desorption” value [10] was 0.517%, the “Change In Mass (%) - ref, Hysteresis” value [10] was −0.026% and the “Change In Mass (%) - ref, Sorption” value [10] was 0.542%. The “Change In Mass (%) - ref, Desorption” value [11] was 0.565%, the “Change In Mass (%) - ref, Hysteresis” value [11] was −0.042% and the “Change In Mass (%) - ref, Sorption” value [11] was 0.607%. For the same compound, the “Change In Mass (%) - ref, Desorption” value [12] was 0.600%, the “Change In Mass (%) - ref, Hysteresis” value [12] was −0.073% and the “Change In Mass (%) - ref, Sorption” value [12] was 0.673%. For the same compound, the “Change In Mass (%) - ref, Desorption” value [13] was 0.650%, the “Change In Mass (%) - ref, Hysteresis” value [13] was −0.086% and the “Change In Mass (%) - ref, Sorption” value [13] was 0.736%. For the same compound, the “Change In Mass (%) - ref, Desorption” value [14] was 0.729%, the “Change In Mass (%) - ref, Hysteresis” value [14] was −0.057% and the “Change In Mass (%) - ref, Sorption” value [14] was 0.786%. The “Change In Mass (%) - ref, Desorption” value [15] was 0.794%, the “Change In Mass (%) - ref, Hysteresis” value [15] was −0.075% and the “Change In Mass (%) - ref, Sorption” value [15] was 0.869%. For the same compound, the “Change In Mass (%) - ref, Desorption” value [16] was 0.878%, the “Change In Mass (%) - ref, Hysteresis” value [16] was −0.078% and the “Change In Mass (%) - ref, Sorption” value [16] was 0.956%. The “Change In Mass (%) - ref, Desorption” value [17] was 1.031%, the “Change In Mass (%) - ref, Hysteresis” value [17] was −0.041% and the “Change In Mass (%) - ref, Sorption” value [17] was 1.072%. The “Change In Mass (%) - ref, Desorption” value [18] was 1.171%, the “Change In Mass (%) - ref, Hysteresis” value [18] was −0.030% and the “Change In Mass (%) - ref, Sorption” value [18] was 1.201%. The “Change In Mass (%) - ref, Desorption” value [19] was 1.378%, the “Change In Mass (%) - ref, Hysteresis” value [19] was −0.019% and the “Change In Mass (%) - ref, Sorption” value [19] was 1.397%. The “Change In Mass (%) - ref, Desorption” value [20] was 1.798%, the “Change In Mass (%) - ref, Sorption” value [20] was 1.798% and the hygroscopicity classification (based on DVS weight gain from 0 to 95% RH) was “slightly hygroscopic”.

Source: patent US9006188B2, “Co-crystals of dapagliflozin” (Mapi Pharma Ltd., priority 2013, dated 2015)
